Assays:
KB-hiFR = experiment: In vitro cytotoxicity, 72 hr continuous exposure, methylene blue staining; format: cell-based, human; conditions: for IC50: KB-hiFR, 72 hr continuous exposure
Procedure: (§1) Cytotoxicity was assayed using varying concentrations of ALD (0.1-200 μM) under standard 72 hr, continuous exposure, in 96-multiwell assays. Growth rate was assessed colorimetrically based on methylene blue staining and data was obtained with an automatic plate reader and IC50 values were determined

[1] = tested on: N87 human gastric carcinoma cells; experiment: as above; format: cell-based; conditions: N-87
Procedure: as §1

[2] = tested on: IGROV-1 ovarian carcinoma; experiment: as above; format: cell-based, human
Procedure: as §1
Cytotoxicity was assayed as described above in Example 1.

[3] = tested on: M109R (doxorubicin resistant) carcinoma; format: in vivo, mouse; conditions: M109R footpad tumor, i.v. 5 mg/kg doxorubicin or equivalent ALD, D7, D14, D21
Procedure: The tumor model used here is the mouse M109R (doxorubicin resistant) carcinoma.
M109R tumor cells (10^6 cells/0.05 ml) were inoculated into the subcutaneous space of the mouse right hind footpad. Five to 7 days after inoculation, mice injected with M109R cells developed solid tumors as measured by the increased thickening of the footpad. Different liposomes were injected i.v. at dose levels of 5 mg/kg based on Doxorubicin content or an amount of Alendronate equivalent to that present in the co-encapsulated formulation at doxorubicin dose of 5 mg/kg. […] Treatment was administered on Day 7 (D7), Day 14 (D14) and Day 21 (D21). Kaplan-Meyer curves were based on an experimental endpoint of tumor size equal or greater than 4 mm.

KG-1 cells = experiment: PKH26/AnnexinV flow cytometry of KG-1 cells co-cultured with γδ T-cells; format: cell-based, human; conditions: 20 μg/mL (Doxil 13.3 μg/mL) 24 h, then 4 h with γδ T-cells 1:1 or 1:5, 100 U/mL IL-2
Procedure: The following method is based on the procedure described by Fischer and Mackensen (2003) The flow cytometric PKH-26 assay for the determination of T-cell mediated cytotoxic activity. Methods 31: 135-142.
Specifically, 1×10^5 KG-1 cells, previously stained with PKH26 Red Fluorescent, were plated in a 24 well plate in 1 mL of complete media. These cells were then treated with different preparations: • (i) 20 μg/mL Alendronate (free Alendronate) • (ii) 20 μg/mL of liposomal Alendronate+Doxorubicin (L-ALD/DOX), • (iii) 20 μg/mL of folate targeted liposomal Alendronate+Doxorubicin (FR-L-ALD/DOX); • (iv) 13.3 μg/mL Doxil (the amount of doxorubicin correspondent to doxorubicin in L-ALD/DOX) • (v) Empty liposomes (stealth) • (vi) Control—no treatment.
Cells were incubated for 24 h at 37° C. with a treatment formulation according to the above groups. After 24 h, each group of treated KG-1 cells was co-cultured with γδ T_cells at a ratio of 1 tumor cell to 1 γδ T-cell and at 1 tumor cell to 5 γδ T-cells. In addition, 100 U/mL of IL-2 was also given to each treatment group. […]
After 4 h incubation, the cell cultures were stained with AnnexinV FITC (BD) in order to measure the percentage of apoptotic cells. The samples were analysed by flow cytometry and the principle is that tumor cell death is measured by analysing PKH26^+AnnexinV^+ cells.

Row | Compound | IC50 (KB-hiFR) [nM] | IC50 [1] [µM] | IC50 [2] [nM] | IC50 (KB-hiFR; Homo sapiens) [nM] | cytotoxicity (in words) (KB-hiFR; stated for KB, N87 and IGROV cell lines together (FIGS. 3B-3D)) | anti-tumor activity [3] | tumor cell killing / sensitivity to γδ T-cells (PKH26+AnnexinV+ cells) (KG-1 cells)
1 | COc1cccc2c1C(=O)c1c(O)c3c(c(O)c1C2=O)C[C@@](O)(C(=O)CO)C[C@@H]3O[C@H]1C[C@H](N)[C@H](O)[C@H](C)O1 [Free DOX, doxorubicin] | 40 | 3.12 | 250 | – | – | – | –
2 | NCCCC(O)(P(=O)(O)O)P(=O)(O)O [Free ALD, 4-amino-1-hydroxybutylidene-1,1-bisphosphonic acid] | – | – | – | > 20000 | essentially no cytotoxicity | no anti-tumor effect | enhances tumour sensitivity to γδ T-cells' cytotoxic action

— patent US10085940B2, “Liposomes co-encapsulating a bisphosphonate and an amphipathic agent” (YISSUM RESEARCH DEVELOPMENT COMPANY OF THE HEBREW …, priority 2011, dated 2018)
